Measured values reported in patent publication US8314108B2, “5-(5-(2-(3-aminopropoxy)-6-methoxyphenyl)-1H-pyrazol-3-ylamino)pyrazine-2-carbonitrile, pharmaceutically acceptable salts thereof, or solvate of salts” (Eli Lilly and Company, priority 2008, dated 2012).
Where a name gives a salt, the structure may show the parent alone.

What was measured:
HT-29 cells = experiment: ECtfs (Two-Fold Sensitization) Assay, 3H-thymidine incorporation; format: cell-based
Method: The capacity for continued tumor cell proliferation after DNA damage can be analyzed by determining the ability of cells to replicate their DNA. […] Following a recovery period, cells are assayed for the ability to incorporate radioactive thymidine into DNA during S phase. The ECtfs parameter is a measure of the concentration of a Chk1 inhibitor necessary to reduce by half the GI90 concentration of gemcitabine, measured in this assay in the absence of Chk1 inhibition. […] These cells are plated at 1.3×10^3 per well on Corning Costar 96-well tissue culture plates. After plating the cells, the tissue culture plates are held at room temperature for 45 minutes, before returning to 37° C. Plates are incubated for 24 hours prior to gemcitabine addition. Before gemcitabine addition, medium is removed from all wells and replaced with 150 μL per well of fresh RPMI medium. Gemcitabine stocks at 10 mM are prepared in phosphate-buffered saline. Gemcitabine dilutions were prepared at 4× concentrations in RPMI medium and added to wells at 50 μL per well. The highest final concentration of gemcitabine used is 80 μM and dilutions proceed by four-fold steps. Two hours later, gemcitabine-containing medium is removed from the wells and replaced with 150 μL per well of fresh RPMI medium. […] The volume of addition is 50 μL. Compound dilutions proceed by two-fold steps, starting at 5000 nM. […] 20 μL of this solution is added to each well, yielding 1 μCi/well of ^3H-thymidine. Cells are labeled for twenty-two hours. The medium containing ^3H-thymidine is thoroughly removed from the wells. The plates are then frozen at −20° C., for several hours. To harvest the DNA containing incorporated ^3H-thymidine, plates are thawed for several minutes, and then 120 μL per well of 0.1 N NaOH is added to each well. Each plate is then incubated at 37° C., with slow mixing on a rotator, for 10 minutes. […] The wells of the tissue culture plate on which cells had been labeled are washed with water 5×. The Unifilter plate membranes are washed with an additional 4.5 mL per well (3×1.0 mL and finally a 1.5 mL wash). The Unifilter plates are then dried at 37° C. for at least 6 hours. The bottom of each filter plate was sealed with a Backseal adhesive sheet (PerkinElmer), and the 50 μL/well of MicroScint-20 (Perkin Elmer) is added. Each plate is then sealed with a Topseal clear adhesive sheet (PerkinElmer). Plates are counted on a Topcount scintillation counter (PerkinElmer), at 1 minute per well. ^3H-thymidine counts per minute (cpm) are exported into Prism (GraphPad) for analysis and plotting. […] For plotting the data in Prism, the gemcitabine concentrations are transformed to log values, and dose-response curves are fit by non-linear regression. Neither top nor bottom fits are constrained.

[1] = test system: Calu-6 lung tumor xenograft; experiment: Human Tumor Xenograft Model, Calu-6 lung; format: in vivo, nude mice; settings: Calu-6 xenograft
Method: (§1) The ability of Chk1 inhibitors to effect tumor killing can be determined in vivo using the Calu-6 lung and HT-29 colon tumor xenograft efficacy models. Calu-6 lung cancer cells (ATCC) are cultured in growth media (MEM w/Earle's salts (Invitrogen) with L-glutamine (Gibco™) supplemented with 10% (v/v) heat inactivated FBS (Gibco™), 1×MEM non-essential amino acids (Gibco™), 1× sodium pyruvate (Gibco™)) and HT-29 colon cancer cells (ATCC) are cultured in growth media, (McCoy's 5A medium (Gibco™) supplemented with 10% FBS (Gibco™)) and expanded. Cells are harvested and washed twice with phosphate buffered saline and 5×10^6 cells (HT-29) or 1×10^6 cells (Calu-6) in growth media (without serum) are mixed with equal volume of BD Matrigel™ matrix (BD Bioscience, Franklin, N.J.), then injected subcutaneously into the flank of nude mice (CD-1 nu/nu, from Charles River Labs, Wilmington, Mass.). At about day 16 after implant (150-200 mm^3), gemcitabine is formulated fresh in saline daily and administered to animals by intraperitoneal route at 60 mg/kg dose. […] Tumor response is determined by tumor volume measurement performed twice a week during the course of treatment. Tumor growth inhibition (TGI) is calculated as the percent reduction in mean tumor size of a compound treated group from the mean tumor size of the vehicle-treated control group.

[2] = test system: HT-29 colon tumor xenograft; experiment: Human Tumor Xenograft Model, HT-29 colon; format: in vivo, nude mice; settings: HT-29 xenograft
Method: as §1

Calu-6 lung xenograft = experiment: Single Agent Efficacy Dosing, Calu-6 lung xenograft; format: in vivo, nude mice; settings: 15 mg/kg subcutaneously, BID×5 rest 2 days, ×3 cycles
Method: The ability of Chk1 inhibitors to effect tumor killing can be determined in vivo using the Calu-6 lung xenograft efficacy model. Calu-6 lung cancer cells (ATCC) are cultured as described above. Cells are harvested and washed twice with phosphate buffered saline and 1×10^6 cells (Calu-6) in growth media (without serum) are mixed with equal volume of BD Matrigel™ matrix (BD Bioscience, Franklin, N.J.), then injected subcutaneously into the flank of nude mice (CD-1 nu/nu, from Charles River Labs, Wilmington, Mass.).

[3] = test system: Thirty solid tumor cell lines; experiment: Monolayer Proliferation and Cytotoxicity Assay (modified propidium iodide assay, Oncotest); format: cell-based; settings: 96 h; majority of thirty solid tumor cell lines, 4 days of treatment; read-out: EC50 (growth inhibition of tumor cell lines)
Text: One measure of potency of a Chk1 inhibitor is its ability to inhibit the proliferation of cancer cells in culture due to uncontrolled replication origin activation. (Conti et al. Cell Cycle 6: 2760-2767, 2007) Determination of Chk1 inhibitor antiproliferative activity in cell lines derived from a broad range of tumor types is indicative of which tumor types may be clinically responsive to chemotherapy with Chk1 inhibitors. The following described cellular proliferation assay is run at Oncotest, GmbH in Germany. Thirty solid tumor cell lines are derived from 13 different tumor histotypes, each represented by 1 to 6 different cell lines (Oncotest, GmbH). […] Briefly, adherent cells are harvested from exponential phase cultures by trypsinization, counted and plated in 96 well flat-bottomed microtiter plates at a cell density depending on the cell line (4.000-20.000 cells/well). […] Finally, PI fluorescence is measured using the Cytofluor 4000 microplate reader (excitation λ=530 nm, emission λ=620 nm) to determine the total viable cell number. Growth inhibition is expressed as Test/Control×100 (% T/C) values. Based on the T/C values, relative IC50 values are determined using non-linear regression (log [conc. of inhibitor] versus response (% T/C)).

[4] = stated jointly for both HT-29 and Calu-6 models

Row | SMILES | EC50 (HT-29 cells; Homo sapiens, HT-29, gemcitabine alone, HT29 colon carcinoma cells) [nM] | percentage of proliferation inhibition (HT-29 cells; gemcitabine alone, HT29 cells) [%] | anti-tumor activity ([1]; dosed alone and in combination with gemcitabine 60 mg/kg, intravenous, Q3Dx4) | increase in tumor growth inhibition over gemcitabine alone [1, 4] | anti-tumor activity ([2]; dosed alone and in combination with gemcitabine 60 mg/kg, intraperitoneal, Q3Dx4) | increase in tumor growth inhibition over gemcitabine alone [2, 4] | growth inhibition compared with the gemcitabine plus compound combination schedule (Calu-6 lung xenograft) | tumor regression (Calu-6 lung xenograft) | decrease of the EC50 of gemcitabine (HT-29 cells; 3 nM of the compound of Example 2, HT29 colon carcinoma cells) [fold] | ECtfs value (HT-29 cells; concentration of Chk1 inhibitor necessary to reduce by half the GI90 concentration of gemcitabine, HT-29 cells) [nM] | EC50 [3] [nM]
1 | Nc1ccn([C@@H]2O[C@H](CO)[C@@H](O)C2(F)F)c(=O)n1 [gemcitabine, reference compound] | 37 | 52 | – | – | – | – | – | – | – | – | –
2 | COc1cccc(OCCCN)c1-c1cc(Nc2cnc(C#N)cn2)n[nH]1 [Example 2, 5-(5-(2-(3-Aminopropoxy)-6-methoxyphenyl)-1H-pyrazol-3-ylamino)pyrazine-2-carbonitrile dihydrogen chloride salt] | – | – | excellent dose dependent anti-tumor activity | six-fold | excellent dose dependent anti-tumor activity | six-fold | superior growth inhibition | Complete tumor regression is rapid and durable | 7 | 0.3 | < 20
